The nature of data set [1]: Formation of a low-solubility polymer/drug complex (gel) on mixing polyanion sodium salt with the salt of the active ingredient. The source says: A “yes” entry means that a complex of low solubility forms on mixing the sodium salt of the polymers and the salt of the active ingredient.
Data set [2] is described as follows: In vitro release profile of the drug polymer complex in PBS at 37° C. Format: physicochemical. The conditions noted are these: ½ dextran sulfate Mw 40,000 (40,000-50,000) and ½ Mw 500,000, FIG. 6. As to the method:
Release profile: Dextran sulfate/amikacin wet gel (100 mg) was placed in 2 ml centrifuge tube. PBS buffer (500 μl) was added to the centrifuged tube. After incubation at 37° C. for 24 hrs, the mixture was centrifuged at 13,000 RPM for 5 minutes. The supernatant was removed and analyzed microbiologically for the presence of drug. The process was repeated at 24 hr intervals for 31 days. The amount of released drug in the eluate was calculated from a standard curve.
The release profile is illustrated in FIG. 1. The release profiles for the compounds of the other Figures were generated in a similar manner.

Data set [3] is described as follows: Distribution of amikacin between gelatinous precipitate and supernatant on mixing amikacin sulfate with dextran sulfate (Na). Format: physicochemical. As to conditions: amikacin sulfate solution mixed with dextran sulfate (Na) solution.
Description: As part of the normal preparation of a solid dosage form based on calcium sulfate, a solution of amikacin sulfate was mixed with a solution of dextran sulfate (Na).
In data set [4] the test system is S. Aureus. As to conditions: cited from earlier work.
Data set [5] relates to E. Coli. The conditions noted are these: cited from earlier work.
The test system of data set [6] is Enterobacter spp. The conditions noted are these: cited from earlier work.
Data set [7] deals with P. Aeruginosa. The conditions noted are these: cited from earlier work.
[8] abbreviates: mixing sodium salt of CMC-L (low viscosity carboxymethylcellulose) and salt of the active ingredient.
Where [9] appears, read: mixing sodium salt of CMC-M (medium viscosity carboxymethylcellulose) and salt of the active ingredient.
Setting [10] is: mixing sodium salt of Dextran Sulfate-500 and salt of the active ingredient.

Values after ≈ are worked out from the molar mass of the structure shown. Like-named read-outs stand apart in the source and are kept apart here.

Turning to Neomycin, the “complex of low solubility forms (yes/no), polymer CMC-L” value (“complex … (yes/no), polymer CMC-L” for short) in data set [1] (setting [8]) is “no”. The “complex of low solubility forms (yes/no), polymer CMC-M” value (shortened to “complex … (yes/no), polymer CMC-M”) in data set [1] (setting [9]) is given as “no”. The “complex of low solubility forms (yes/no), polymer Dextran Sulfate-500” value (from here on “complex … (yes/no), polymer Dextran Sulfate-500”) in data set [1] (setting [10]) is recorded as “yes”.
For the molecule `CCN(CC)CCOC(=O)c1ccc(N)cc1` [Procaine], the “complex … (yes/no), polymer Dextran Sulfate-500” value in data set [1] (setting [10]) is given as “yes”.
`CN[C@H](CC(C)C)C(=O)N[C@H]1C(=O)N[C@@H](CC(N)=O)C(=O)N[C@H]2C(=O)N[C@H]3C(=O)N[C@H](C(=O)N[C@H](C(=O)O)c4cc(O)cc(O)c4-c4cc3ccc4O)[C@H](O)c3ccc(c(Cl)c3)Oc3cc2cc(c3O[C@@H]2O[C@H](CO)[C@@H](O)[C@H](O)[C@H]2O[C@H]2C[C@](C)(N)[C@H](O)[C@H](C)O2)Oc2ccc(cc2Cl)[C@H]1O` [Vancomycin]: in data set [1], the “complex … (yes/no), polymer CMC-L” value is “yes” and the “complex … (yes/no), polymer Dextran Sulfate-500” value was “yes”.
As to `[H]/N=C(/N)N[C@H]1[C@H](O)[C@@H](O)[C@H](O[C@@H]2O[C@@H](C)[C@](O)(C=O)[C@H]2O[C@@H]2O[C@@H](CO)[C@H](O)[C@@H](O)[C@@H]2NC)[C@@H](N/C(N)=N\[H])[C@@H]1O` [Streptomycin], the “complex … (yes/no), polymer Dextran Sulfate-500” value in data set [1] (setting [10]) is “yes”.
Turning to `COc1cccc2c1C(=O)c1c(O)c3c(c(O)c1C2=O)C[C@@](O)(C(=O)CO)C[C@@H]3O[C@H]1C[C@H](N)[C@H](O)[C@H](C)O1` [Doxorubicin], the “complex … (yes/no), polymer CMC-L” value in data set [1] (setting [8]) is “yes”. The “complex … (yes/no), polymer CMC-M” value in data set [1] (setting [9]) is “yes”. For the same molecule, the “complex … (yes/no), polymer Dextran Sulfate-500” value in data set [1] (setting [10]) is given as “yes”.
Consider `CCC(=O)C(CC(C)N(C)C)(c1ccccc1)c1ccccc1` (stereo not drawn) [Methadone], for which the “complex … (yes/no), polymer CMC-L” value in data set [1] (setting [8]) was “no”. Further, in data set [1] (setting [9]), the “complex … (yes/no), polymer CMC-M” value is “no”. For the same molecule, in data set [1] (setting [10]), the “complex … (yes/no), polymer Dextran Sulfate-500” value was “yes”.
Regarding `CN(C)CCCN1c2ccccc2Sc2ccc(Cl)cc21` [Chlorpromazine], in data set [1], the “complex … (yes/no), polymer CMC-L” value was “yes”; the “complex … (yes/no), polymer CMC-M” value is recorded as “yes”; the “complex … (yes/no), polymer Dextran Sulfate-500” value is recorded as “yes”.
Consider `O=C1CC[C@@]2(O)[C@H]3Cc4ccc(O)c5c4[C@@]2(CCN3CC2CC2)[C@H]1O5` [Naltrexone], for which, in data set [1] (setting [8]), the “complex … (yes/no), polymer CMC-L” value is “no”. Also, the “complex … (yes/no), polymer CMC-M” value in data set [1] (setting [9]) was “no”. For the same molecule, the “complex … (yes/no), polymer Dextran Sulfate-500” value in data set [1] (setting [10]) is listed as “yes”.
Turning to `CN(C)[C@@H]1C(O)=C(C(N)=O)C(=O)[C@@]2(O)C(O)=C3C(=O)c4c(O)cccc4[C@@](C)(O)[C@H]3[C@H](O)[C@@H]12` [Oxytetracycline], in data set [1], the “complex … (yes/no), polymer CMC-L” value is “yes”; the “complex … (yes/no), polymer CMC-M” value is “yes”; the “complex … (yes/no), polymer Dextran Sulfate-500” value is recorded as “yes”.
As to `C[C@H]1c2cccc(O)c2C(=O)C2=C(O)[C@]3(O)C(=O)C(C(N)=O)=C(O)[C@@H](N(C)C)[C@@H]3[C@@H](O)[C@@H]21` [Doxycycline], the “complex … (yes/no), polymer CMC-L” value in data set [1] (setting [8]) was “yes”. Further, the “complex … (yes/no), polymer CMC-M” value in data set [1] (setting [9]) is “yes”. Further, the “complex … (yes/no), polymer Dextran Sulfate-500” value in data set [1] (setting [10]) is “yes”.
On to `CCCCNc1ccc(C(=O)OCCN(C)C)cc1` [Tetracaine], for which the “complex … (yes/no), polymer CMC-L” value in data set [1] (setting [8]) is “yes”. Besides, in data set [1] (setting [9]), the “complex … (yes/no), polymer CMC-M” value was “yes”. Moreover, the “complex … (yes/no), polymer Dextran Sulfate-500” value in data set [1] (setting [10]) is recorded as “yes”.
As to `CCCNC(C)C(=O)Nc1ccccc1C` (stereo not drawn) [Prilocaine], the “complex … (yes/no), polymer Dextran Sulfate-500” value in data set [1] is recorded as “yes”.
`CN1CCc2cccc3c2[C@H]1Cc1ccc(O)c(O)c1-3` [Apomorphine]: the “complex … (yes/no), polymer Dextran Sulfate-500” value in data set [1] (setting [10]) is “yes”.
Regarding `CC[C@H]1OC(=O)[C@H](C)[C@@H](O[C@H]2C[C@@](C)(OC)[C@@H](O)[C@H](C)O2)[C@H](C)[C@@H](O[C@@H]2O[C@H](C)C[C@H](N(C)C)[C@H]2O)[C@](C)(O)C[C@@H](C)C(=O)[C@H](C)[C@@H](O)[C@]1(C)O` [Erythromycin], in data set [1], the “complex … (yes/no), polymer CMC-L” value is given as “no”; the “complex … (yes/no), polymer CMC-M” value is “no”; the “complex … (yes/no), polymer Dextran Sulfate-500” value is “yes”.
`COc1ccc2c3c1O[C@H]1C(=O)CC[C@@]4(O)[C@@H](C2)N(C)CC[C@]314` [Oxycodone]: in data set [1] (setting [10]), the “complex … (yes/no), polymer Dextran Sulfate-500” value is listed as “yes”. For the same molecule, the entries for the “release rate compared to all (500,000) dextran sulfate complex” value in data set [2] and in data set [2] (listed as oxycodone) were “increases the release rate” and “accelerated”, respectively.
`NCC[C@H](O)C(=O)N[C@@H]1C[C@H](N)[C@@H](O[C@H]2O[C@H](CN)[C@@H](O)[C@H](O)[C@H]2O)[C@H](O)[C@H]1O[C@H]1O[C@H](CO)[C@@H](O)[C@H](N)[C@H]1O` [Amikacin]: the “complex … (yes/no), polymer CMC-L” value in data set [1] is “no”. The “complex … (yes/no), polymer Dextran Sulfate-500” value in data set [1] is “yes”. For the same molecule, in data set [3], the “amikacin included in the gelatinous precipitate” value is more than 90%. In data set [3], the “amikacin remaining in the supernatant” value was less than 10%. The MIC in data set [4] was 1 µg/mL (≈ 1.71 µM); in data set [5], 2 µg/mL (≈ 3.42 µM); in data set [6], 2 µg/mL (≈ 3.42 µM); in data set [7] it was 2 µg/mL (≈ 3.42 µM).
In the case of `NC[C@H]1O[C@H](O[C@H]2[C@H](O)[C@@H](O[C@H]3O[C@H](CO)[C@@H](O)[C@H](N)[C@H]3O)[C@H](N)C[C@@H]2N)[C@H](N)C[C@@H]1O` [Tobramycin], in data set [1] (setting [10]), the “complex … (yes/no), polymer Dextran Sulfate-500” value is “yes”.
With `CCCCOc1cc(C(=O)NCCN(CC)CC)c2ccccc2n1` [Dibucaine], the “complex … (yes/no), polymer CMC-L” value in data set [1] (setting [8]) is “yes”. Further, the “complex … (yes/no), polymer CMC-M” value in data set [1] (setting [9]) is given as “yes”. Besides, in data set [1] (setting [10]), the “complex … (yes/no), polymer Dextran Sulfate-500” value is listed as “yes”.

As usually defined, the MIC is the lowest concentration that inhibits growth of the organism.

These data come from US20070110804A1, “Drug polymer complexes” (ROYER BIOMEDICAL, INC., priority 2003, published 2007).
